From US12247017B2, “Herbicidal uracilpyridines” (BASF SE, priority 2019, dated 2025)

Tests used:
Details in all cases: application rate 16 g/ha, post-emergence method, scale from 0 to 100
SETVI = assay: greenhouse herbicidal activity, post-emergence, SETVI; type: in vivo, Setaria viridis
Text: (§1) The seeds of the test plants were sown separately for each species. For the pre-emergence treatment, the active ingredients, which had been suspended or emulsified in water, were applied directly after sowing by means of finely distributing nozzles. The containers were irrigated gently to promote germination and growth and subsequently covered with transparent plastic hoods until the test plants had rooted. This cover caused uniform germination of the test plants, unless this had been impaired by the active ingredients. For the post-emergence treatment, the test plants were first grown to a height of 3 to 15 cm, depending on the plant habit, and only then treated with the active ingredients which had been suspended or emulsified in water. For this purpose, the test plants were either sown directly and grown in the same containers, or they were first grown separately as seedlings and transplanted into the test containers a few days prior to treatment. Depending on the species, the test plants were kept at 10-25° C. or 20-35° C., respectively. The test period extended over 2 to 4 weeks. During this time, the test plants were tended, and their response to the individual treatments was evaluated. Evaluation was carried out using a scale from 0 to 100. […]

AMARE = assay: greenhouse herbicidal activity, post-emergence, AMARE; type: in vivo, Amaranthus retroflexus
Text: as §1

CHEAL = assay: greenhouse herbicidal activity, post-emergence, CHEAL; type: in vivo, Chenopodium album
Text: as §1

ECHCG = assay: greenhouse herbicidal activity, post-emergence, ECHCG; type: in vivo, Echinocloa crus-galli
Text: as §1

Structure (SMILES) | herbicidal activity against SETVI (SETVI) | herbicidal activity against AMARE (AMARE) | herbicidal activity against CHEAL (CHEAL) | herbicidal activity against ECHCG (ECHCG)
CCOC(=O)CCNC(=O)COc1nc(-n2c(=O)cc(C(F)(F)F)n(C)c2=O)c(F)cc1Cl [Example 2] | very good herbicidal activity (a very good herbicidal activity is given at values of at least 85) | very good herbicidal activity (a very good herbicidal activity is given at values of at least 85) | very good herbicidal activity (a very good herbicidal activity is given at values of at least 85) | 
COC(=O)CCNC(=O)C(C)Sc1nc(-n2c(=O)cc(C(F)(F)F)n(C)c2=O)c(F)cc1Cl (stereo not shown) [Example 1, Methyl 3-[2-[[3-chloro-5-fluoro-6-[3-methyl-2,6-dioxo-4-(trifluoromethyl)pyrimidin-1-yl]-2-pyridyl]sulfanyl]propanoylamino]propanoate] | very good herbicidal activity (a very good herbicidal activity is given at values of at least 85) | very good herbicidal activity (a very good herbicidal activity is given at values of at least 85) | very good herbicidal activity (a very good herbicidal activity is given at values of at least 85) | very good herbicidal activity (a very good herbicidal activity is given at values of at least 85)
